Reference: patent US12077503B2, “Substituted cyclic amides and their use as herbicides” (FMC CORPORATION, priority 2015, dated 2024)

Tests used:
Type in all cases: in vivo
[1] = test system: ragweed (common ragweed, Ambrosia elatior); test: Test A preemergence; conditions: for Plant response rating, Ragweed: 125 g ai/ha; for Ragweed plant response rating (0 to 100 scale, 0 is no effect, 100 is complete control): 500 g ai/ha, visual injury approx. 10 d
Summary of the method: (§1)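 Ratings of 0 (no effect) to 100 (complete control) come from visual comparison with untreated controls roughly 10 d after treatment. Test chemicals, formulated in a non-phytotoxic solvent mixture with surfactant, were applied either as a preemergence directed soil spray on seeded soil or postemergence to one- to two-leaf plants 2 to 10 cm tall.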

[2] = test system: ryegrass, Italian (Italian ryegrass, Lolium multiflorum); test: Test A preemergence; conditions: for Plant response rating, Ryegrass, Italian: 125 g ai/ha; for Ryegrass, Italian plant response rating (0 to 100 scale, 0 is no effect, 100 is complete control): 500 g ai/ha, visual injury approx. 10 d
Summary of the method: as §1

[3] = test system: pigweed (Amaranthus retroflexus); test: Test A preemergence; conditions: for Plant response rating, Pigweed: 125 g ai/ha; for Pigweed plant response rating (0 to 100 scale, 0 is no effect, 100 is complete control): 500 g ai/ha, visual injury approx. 10 d
[4] = test system: giant foxtail (Setaria faberii); test: Test A preemergence; conditions: for Plant response rating, Foxtail, Giant: 125 g ai/ha; for Foxtail, Giant plant response rating (0 to 100 scale, 0 is no effect, 100 is complete control): 500 g ai/ha, visual injury approx. 10 d
Summary of the method: as §1

Kochia (Kochia scoparia) [5] = test: Test A preemergence; conditions: for Plant response rating, Kochia: 125 g ai/ha; for Kochia plant response rating (0 to 100 scale, 0 is no effect, 100 is complete control): 500 g ai/ha, visual injury approx. 10 d
Summary of the method: as §1

[6] = test system: barnyardgrass (Echinochloa crus-galli); test: Test A preemergence; conditions: for Plant response rating, Barnyardgrass: 125 g ai/ha; for Barnyardgrass plant response rating (0 to 100 scale, 0 is no effect, 100 is complete control): 500 g ai/ha, visual injury approx. 10 d
Summary of the method: as §1

[7] = test system: wheat (Triticum aestivum); test: Test A postemergence; conditions: for Wheat plant response rating: visual injury rating on 0 to 100 scale (0 no effect, 100 complete control), approx. 10 d
Summary of the method: as §1

[8] = test system: ragweed (common ragweed, Ambrosia elatior); test: Test A postemergence; conditions: for Ragweed plant response rating: visual injury rating on 0 to 100 scale (0 no effect, 100 complete control), approx. 10 d
Summary of the method: as §1

[9] = test system: Galium (catchweed bedstraw, Galium aparine); test: Test A postemergence; conditions: for Galium plant response rating: visual injury rating on 0 to 100 scale (0 no effect, 100 complete control), approx. 10 d
Summary of the method: as §1

[10] = test system: ryegrass, Italian (Italian ryegrass, Lolium multiflorum); test: Test A postemergence; conditions: for Ryegrass, Italian plant response rating: visual injury rating on 0 to 100 scale (0 no effect, 100 complete control), approx. 10 d
Summary of the method: as §1

[11] = test system: pigweed (Amaranthus retroflexus); test: Test A postemergence; conditions: for Pigweed plant response rating: visual injury rating on 0 to 100 scale (0 no effect, 100 complete control), approx. 10 d
Summary of the method: as §1

[12] = test system: giant foxtail (Setaria faberii); test: Test A postemergence; conditions: for Foxtail, Giant plant response rating: visual injury rating on 0 to 100 scale (0 no effect, 100 complete control), approx. 10 d
Summary of the method: as §1

corn (Zea mays) = test: Test A postemergence; conditions: for Corn plant response rating: visual injury rating on 0 to 100 scale (0 no effect, 100 complete control), approx. 10 d
Summary of the method: as §1

Kochia (Kochia scoparia) [13] = test: Test A postemergence; conditions: for Kochia plant response rating: visual injury rating on 0 to 100 scale (0 no effect, 100 complete control), approx. 10 d
Summary of the method: as §1

[14] = test system: blackgrass (Alopecurus myosuroides); test: Test A postemergence; conditions: for Blackgrass plant response rating: visual injury rating on 0 to 100 scale (0 no effect, 100 complete control), approx. 10 d
Summary of the method: as §1

[15] = test system: barnyardgrass (Echinochloa crus-galli); test: Test A postemergence; conditions: for Barnyardgrass plant response rating: visual injury rating on 0 to 100 scale (0 no effect, 100 complete control), approx. 10 d
Summary of the method: as §1

rice (Oryra sativa) = test: Test B flooded paddy test; conditions: Flood, 0 to 100 scale where 0 is no effect and 100 is complete control, 13 to 15 d
Summary of the method: (§2)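 Percent control, visually estimated after 13–15 d in the greenhouse on a 0–100 basis, compares treated pots with untreated ones; compound was put into paddy water 3 cm above the soil when plants had two leaves.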

[16] = test system: ducksalad (Heteranthera limosa); test: Test B flooded paddy test; conditions: Flood, 0 to 100 scale where 0 is no effect and 100 is complete control, 13 to 15 d
Summary of the method: as §2

[17] = test system: sedge, umbrella (small-flower umbrella sedge, Cyperus difformis); test: Test B flooded paddy test; conditions: Flood, 0 to 100 scale where 0 is no effect and 100 is complete control, 13 to 15 d
Summary of the method: as §2

[18] = test system: barnyardgrass (Echinochloa crus-galli); test: Test B flooded paddy test; conditions: Flood, 0 to 100 scale where 0 is no effect and 100 is complete control, 13 to 15 d
Summary of the method: as §2

[19] = Preemergence, visual injury after approximately 10 d, 0 to 100 scale where 0 is no effect and 100 is complete control
[20] = 125 g ai/ha, postemergence, visual rating after approx. 10 d, 0 to 100 scale (0 no effect, 100 complete control)
[21] = Postemergence, 500 g ai/ha, 0 to 100 scale where 0 is no effect and 100 is complete control
[22] = preemergence, 0 to 100 scale (0 no effect, 100 complete control)
[23] = 500 g ai/ha, postemergence, 0 to 100 scale, 0 no effect, 100 complete control

SMILES: CC(C)Oc1cccc(C2CNC(=O)C2C(=O)Nc2ccc(F)c(F)c2F)c1 (stereo not drawn) [Compound 554]
- Plant response rating, Ragweed [1, 19]: 20
- Ragweed plant response rating (0 to 100 scale, 0 is no effect, 100 is complete control) ([1]; Preemergence): 70
- Plant response rating, Ryegrass, Italian [2, 19]: 20
- Ryegrass, Italian plant response rating (0 to 100 scale, 0 is no effect, 100 is complete control) ([2]; Preemergence): 40
- Plant response rating, Pigweed [3, 19]: 0
- Pigweed plant response rating (0 to 100 scale, 0 is no effect, 100 is complete control) ([3]; Preemergence): 30
- Plant response rating, Foxtail, Giant [4, 19]: 90
- Foxtail, Giant plant response rating (0 to 100 scale, 0 is no effect, 100 is complete control) ([4]; Preemergence): 90
- Plant response rating, Kochia (Kochia (Kochia scoparia) [5]; [19]): 70
- Kochia plant response rating (0 to 100 scale, 0 is no effect, 100 is complete control) (Kochia (Kochia scoparia) [5]; Preemergence): 90
- Plant response rating, Barnyardgrass [6, 19]: 90
- Barnyardgrass plant response rating (0 to 100 scale, 0 is no effect, 100 is complete control) ([6]; Preemergence): 90
- Plant response rating, Wheat [7, 20]: 20
- Plant response rating, Wheat [7, 21]: 50
- Plant response rating, Ragweed [8, 20]: 0
- Plant response rating, Ragweed [8, 21]: 30
- Plant response rating, Galium [9, 20]: 60
- Plant response rating, Galium [9, 21]: 60
- Plant response rating, Ryegrass, Italian [10, 20]: 40
- Plant response rating, Ryegrass, Italian [10, 21]: 90
- Plant response rating, Pigweed [11, 20]: 0
- Plant response rating, Pigweed [11, 21]: 0
- Plant response rating, Foxtail, Giant [12, 20]: 70
- Plant response rating, Foxtail, Giant [12, 21]: 80
- Plant response rating, Corn (corn (Zea mays); [20]): 40
- Plant response rating, Corn (corn (Zea mays); [21]): 70
- Plant response rating, Kochia (Kochia (Kochia scoparia) [13]; [20]): 20
- Plant response rating, Kochia (Kochia (Kochia scoparia) [13]; [21]): 50
- Plant response rating, Blackgrass [14, 20]: 60
- Plant response rating, Blackgrass [14, 21]: 70
- Plant response rating, Barnyardgrass [15, 20]: 80
- Plant response rating, Barnyardgrass [15, 21]: 90
- Plant response rating, Rice (rice (Oryra sativa); 250 g ai/ha): 25
- Plant response rating, Ducksalad ([16]; 250 g ai/ha): 100
- Plant response rating, Sedge, Umbrella ([17]; 250 g ai/ha): 0
- Plant response rating, Barnyardgrass ([18]; 250 g ai/ha): 55

SMILES: Cc1cc(NC(=O)C2C(=O)NCC2c2ccc(F)c(F)c2)ccc1C(F)(F)F (stereo not drawn) [Compound 414]
- Plant response rating, Ragweed [1, 22]: 0
- Ragweed plant response rating (0 to 100 scale, 0 is no effect, 100 is complete control) ([1]; Preemergence): 0
- Plant response rating, Ryegrass, Italian [2, 22]: 0
- Ryegrass, Italian plant response rating (0 to 100 scale, 0 is no effect, 100 is complete control) ([2]; Preemergence): 0
- Plant response rating, Pigweed [3, 22]: 0
- Pigweed plant response rating (0 to 100 scale, 0 is no effect, 100 is complete control) ([3]; Preemergence): 0
- Plant response rating, Foxtail, Giant [4, 22]: 0
- Foxtail, Giant plant response rating (0 to 100 scale, 0 is no effect, 100 is complete control) ([4]; Preemergence): 10
- Plant response rating, Kochia (Kochia (Kochia scoparia) [5]; [22]): 0
- Kochia plant response rating (0 to 100 scale, 0 is no effect, 100 is complete control) (Kochia (Kochia scoparia) [5]; Preemergence): 0
- Plant response rating, Barnyardgrass [6, 22]: 0
- Barnyardgrass plant response rating (0 to 100 scale, 0 is no effect, 100 is complete control) ([6]; Preemergence): 0
- Wheat plant response rating ([7]; 125 g ai/ha, postemergence): 0
- Plant response rating, Wheat [7, 23]: 0
- Ragweed plant response rating ([8]; 125 g ai/ha, postemergence): 0
- Plant response rating, Ragweed [8, 23]: 0
- Galium plant response rating ([9]; 125 g ai/ha, postemergence): 0
- Plant response rating, Galium [9, 23]: 0
- Ryegrass, Italian plant response rating ([10]; 125 g ai/ha, postemergence): 0
- Plant response rating, Ryegrass, Italian [10, 23]: 0
- Pigweed plant response rating ([11]; 125 g ai/ha, postemergence): 0
- Plant response rating, Pigweed [11, 23]: 0
- Foxtail, Giant plant response rating ([12]; 125 g ai/ha, postemergence): 0
- Plant response rating, Foxtail, Giant [12, 23]: 0
- Corn plant response rating (corn (Zea mays); 125 g ai/ha, postemergence): 0
- Plant response rating, Corn (corn (Zea mays); [23]): 0
- Kochia plant response rating (Kochia (Kochia scoparia) [13]; 125 g ai/ha, postemergence): 0
- Plant response rating, Kochia (Kochia (Kochia scoparia) [13]; [23]): 10
- Blackgrass plant response rating ([14]; 125 g ai/ha, postemergence): 0
- Plant response rating, Blackgrass [14, 23]: 0
- Barnyardgrass plant response rating ([15]; 125 g ai/ha, postemergence): 0
- Plant response rating, Barnyardgrass [15, 23]: 0
- Plant response rating, Rice (rice (Oryra sativa); 500 g ai/ha): 0
- Plant response rating, Ducksalad ([16]; 500 g ai/ha): 40
- Plant response rating, Sedge, Umbrella ([17]; 500 g ai/ha): 0
- Plant response rating, Barnyardgrass ([18]; 500 g ai/ha): 0

SMILES: O=C(Nc1cccc(F)c1F)C1C(=O)N(CC=CBr)CC1c1cccc(C(F)(F)F)c1 (stereo not drawn) [Compound 486]
- Plant response rating, Ragweed [1, 19]: 0
- Ragweed plant response rating (0 to 100 scale, 0 is no effect, 100 is complete control) ([1]; Preemergence): 0
- Plant response rating, Ryegrass, Italian [2, 19]: 0
- Ryegrass, Italian plant response rating (0 to 100 scale, 0 is no effect, 100 is complete control) ([2]; Preemergence): 20
- Plant response rating, Pigweed [3, 19]: 0
- Pigweed plant response rating (0 to 100 scale, 0 is no effect, 100 is complete control) ([3]; Preemergence): 20
- Plant response rating, Foxtail, Giant [4, 19]: 60
- Foxtail, Giant plant response rating (0 to 100 scale, 0 is no effect, 100 is complete control) ([4]; Preemergence): 90
- Plant response rating, Kochia (Kochia (Kochia scoparia) [5]; [19]): 0
- Kochia plant response rating (0 to 100 scale, 0 is no effect, 100 is complete control) (Kochia (Kochia scoparia) [5]; Preemergence): 0
- Plant response rating, Barnyardgrass [6, 19]: 30
- Barnyardgrass plant response rating (0 to 100 scale, 0 is no effect, 100 is complete control) ([6]; Preemergence): 70
- Wheat plant response rating ([7]; 125 g ai/ha, postemergence): 0
- Plant response rating, Wheat [7, 21]: 0
- Ragweed plant response rating ([8]; 125 g ai/ha, postemergence): 0
- Plant response rating, Ragweed [8, 21]: 0
- Galium plant response rating ([9]; 125 g ai/ha, postemergence): 0
- Plant response rating, Galium [9, 21]: 20
- Ryegrass, Italian plant response rating ([10]; 125 g ai/ha, postemergence): 0
- Plant response rating, Ryegrass, Italian [10, 21]: 0
- Pigweed plant response rating ([11]; 125 g ai/ha, postemergence): 0
- Plant response rating, Pigweed [11, 21]: 40
- Foxtail, Giant plant response rating ([12]; 125 g ai/ha, postemergence): 0
- Plant response rating, Foxtail, Giant [12, 21]: 50
- Corn plant response rating (corn (Zea mays); 125 g ai/ha, postemergence): 0
- Plant response rating, Corn (corn (Zea mays); [21]): 0
- Kochia plant response rating (Kochia (Kochia scoparia) [13]; 125 g ai/ha, postemergence): 0
- Plant response rating, Kochia (Kochia (Kochia scoparia) [13]; [21]): 0
- Blackgrass plant response rating ([14]; 125 g ai/ha, postemergence): 0
- Plant response rating, Blackgrass [14, 21]: 0
- Barnyardgrass plant response rating ([15]; 125 g ai/ha, postemergence): 0
- Plant response rating, Barnyardgrass [15, 21]: 40
- Plant response rating, Rice (rice (Oryra sativa); 250 g ai/ha): 0
- Plant response rating, Ducksalad ([16]; 250 g ai/ha): 0
- Plant response rating, Sedge, Umbrella ([17]; 250 g ai/ha): 0
- Plant response rating, Barnyardgrass ([18]; 250 g ai/ha): 0
